Marks after values point to notes of the source that are not given here.
Key:
Type in all cases: cell-based, human
cBAL111 cells = assay: Urea production of cBAL111 cells in monolayer, response to CG
Protocol: (§1) Urea: Urea concentrations of test medium samples are determined using the blood urea nitrogen test of Sigma Chemical Co according to the instructions of the manufacturer.
(§2) The HepaRG cells are cultured as indicated above in 24 well in presence or absence of 1 mM CG during the last 5 days. Next the cells are tested as indicated above in presence or absence of CG during 24 hours. To determine the conversion of ammonia into urea, the ^15N urea enrichment (single and double labeled) is measured in the test samples using mass-spectrometry. Similarly, HepG2 and cBAL111 cells were tested for their response to CG.

HepaRG cells [1] = assay: RT-PCR mRNA levels of hepatic genes in HepaRG monolayer cultures; conditions: CG treatment
Protocol: The HepaRG cells cultured in the 6-well plates are lysed and the RNA is isolated using the RNeasy kit (Qiagen). Next, real-time reverse transcriptase-polymerase chain reactions (RT-PCR) are performed to quantify mRNA levels of hepatic genes as well as 18S ribosomal RNA levels by RT-PCR.
First-strand cDNA is generated using a combination of 40 pmol of gene-specific RT-primers (see Table 1) and 134 units of Superscript III (Invitrogen) and 1 μg RNA in a total volume of 25 μl at 50° C. for one hour followed by a 15 min incubation at 70° C. The resulting gene-specific RT reaction mixtures are column purified using Qiaquick PCR Purification Kit (Qiagen).
Real-time PCR is performed using 1 μl of cDNA and LightCycler FastStart DNA Master SYBR® Green 1 reagent (Roche). PCR primers are depicted in the Table 3. The thermal cycling profile of the touchdown PCR is as follows: 94° C. for 10 min, followed by 40 cycles of 94° C. for 1 s, primer annealing at 68° C. for 7 s with a 0.5° C./cycle decrease until 63° C., and extension for 40 s at 72° C. PCR specificity is verified by melting curve analysis and agarose gel electrophoresis. The mRNA quantification is carried out by using the LinRegPCR programme (Ramakers et al.^17). For each sample the mRNA starting level is normalised for the 18S rRNA starting level. To correct for variations between RT-PCR runs, the mRNA starting levels of liver specific genes of NKNT-3 cells are additionally standardized for average mRNA starting levels of two liver samples that are simultaneously subjected to RT-PCR.

HepG2 cells = assay: Urea production of HepG2 cells in monolayer, response to CG
Protocol: as §1, §2

HepaRG cells [2] = assay: AMC-BAL bioreactor functionality test of HepaRG cells
Protocol: One liter of HepaRG medium containing 75 ml of viable HepaRG cells is injected under sterile conditions into an AMC-BAL bioreactor (cf. Flendrig et al.^15) through three loading ports. […] To ensure optimal cell attachment and an even cell distribution, bioreactors are rotated 340° (back and forth) along the longitudinal axis at 1 revolution/min. After this attachment period, dead and unattached cells are removed by flushing 500 mL of fresh culture medium through the bioreactor at 150 mL/min. From then on bioreactors are perfused with 1.5 L recirculating culture medium at 150 mL/min. The medium is refreshed every three days. The bioreactors are cultured in HepaRG medium for 14 days. […] At least one week prior to clinical application, 1 mM CG (Sigma) is added to the media to enhance the urea cycle. The bioreactors are tested every culture week and prior to clinical application for sterility and function. Laboratory model AMC-BAL bioreactors, e.g. of a different scale, are produced in essentially the same way as described above. These laboratory model bioreactors are used e.g. for clinical testing in animal models, such as rats with acute liver failure.
Thirdly, the culture medium is replaced by 1500 ml test medium. […] At first 700 ml test medium is flushed through the bioreactor followed by recirculation of 800 ml test medium during 24 hours. […] From the changes in concentration an activity per hour and per billion cells seeded is calculated.

HepaRG cells [3] = assay: 15N urea enrichment (conversion of ammonia into urea) in HepaRG monolayer cultures; conditions: for 15N urea enrichment: 1 mM CG in preincubation and in testmedium (++)
Protocol: For testing, the cells are seeded in 6-well and 24-well culture plates (Corning) in HepaRG media with different FBS batches or other differences in medium composition. After a 2 weeks proliferation phase, 2% of DMSO will be added to half of the cultures. After another 2 weeks of culturing, the confluence and morphology of the cultures will be assessed microscopically. Furthermore the +DMSO and −DMSO cell cultures in the 24-well plates will be tested for biochemical activity, i.e. urea production, ammonia elimination and protein content. The cultured cells are washed twice using phosphate buffered saline (PBS, NBPI International) and then incubated with test medium consisting of HepaRG culture medium supplemented with 1.5 mM ^15NH4Cl (Sigma), 2.75 mM D-galactose (Sigma), 2 mM ornithine hydrochloride (Sigma) and 2 mM L-lactate (Sigma). Medium samples are taken after 1 hr from the culture wells, as a reference, and after 24 hours. At the end of the test period the cells are washed three times using PBS and stored at −20° C. for protein determination. From the changes in concentration at t=1 hr and 24 hr of urea and ammonia an activity per hour and per mg protein/well is calculated. Quality of the cell-loaded bioreactors, measured by hepatocyte function at the start of the treatment, will be compared with values of primary hepatocytes that have been tested extensively in vitro in the past.
^15N Urea: Single and Double labelled urea is measured in the test medium samples using mass-spectrometry.
as §2

[4] = 1 mM CG in preincubation and in testmedium (++)
[5] = 1 mM CG only during preincubation (+−)
[6] = Bioreactor −DMSO +CG versus Monolayer + DMSO − CG
[7] = Bioreactor −DMSO +CG versus Monolayer − DMSO − CG
[8] = HepaRG in AMC-BAL bioreactor, 13 days, −DMSO, 1 mM CG

For NC(=O)N[C@@H](CCC(=O)O)C(=O)O [CG, carbamoyl glutamate], the Urea production (cBAL111 cells; [4]) was 9.4 ± 8.4 nmol/h/mg protein, the Urea production (cBAL111 cells; [5]) was 10.8 ± 6.2 nmol/h/mg protein and the Urea production (cBAL111 cells; 1 mM CG only during test (−+)) was 8.3 ± 8.3 nmol/h/mg protein. The “effect on other hepatic functions and the gene expression profiles” value (HepaRG cells [1]) was “No effect”, the Urea production (HepG2 cells; [4]) was 2.4 ± 1.6 nmol/h/mg protein and the Urea production (HepG2 cells; [5]) was 2.5 ± 1.4 nmol/h/mg protein. The Urea production (HepG2 cells; 1 mM CG only during test (−+)) was 1.8 ± 1.1 nmol/h/mg protein, the “% improvement by bioreactor: 15N urea enrichment” value (HepaRG cells [2]; [6]) was 157* % and the “% improvement by bioreactor: Ammonia elimination” value (HepaRG cells [2]; [6]) was 134%. For the same molecule, the “% improvement by bioreactor: ApoA1 synthesis” value (HepaRG cells [2]; [6]) was 113%, the “% improvement by bioreactor: Lactate consumption” value (HepaRG cells [2]; [6]) was “conversion*” and the “% improvement by bioreactor: Urea production” value (HepaRG cells [2]; [6]) was 187* %. The “% improvement by bioreactor: 15N urea enrichment” value (HepaRG cells [2]; [7]) was 418* %, the “% improvement by bioreactor: Ammonia elimination” value (HepaRG cells [2]; [7]) was 199* % and the “% improvement by bioreactor: ApoA1 synthesis” value (HepaRG cells [2]; [7]) was 154%. For the same molecule, the “% improvement by bioreactor: Lactate consumption” value (HepaRG cells [2]; [7]) was “conversion*”, the “% improvement by bioreactor: Urea production” value (HepaRG cells [2]; [7]) was 262* % and the 15N urea enrichment (HepaRG cells [2]; [8]) was 25.1 ± 3.7 % of total urea. It also gave an Ammonia elimination (HepaRG cells [2]; [8]) of 143 ± 105 nmol/h/mg protein, an ApoA1 synthesis (HepaRG cells [2]; [8]) of 1.2 ± 0.9 ug/h/mg protein and a Lactate consumption (HepaRG cells [2]; [8]) of 42.1 ± 14.7 nmol/h/mg protein. For the same molecule, the Urea production (HepaRG cells [2]; [8]) was 13.1 ± 1.2 nmol/h/mg protein, the 15N urea enrichment (HepaRG cells [3]; HepaRG + DMSO) was 7.8 ± 2.4 % of total urea produced and the 15N urea enrichment (HepaRG cells [3]; HepaRG − DMSO) was 24.4 ± 4.1 % of total urea produced. The “increase of % of urea of the total urea produced from ammonia” value (HepaRG cells [3]; HepaRG −DMSO cells, CG treatment) was “four-fold”.

Reference: patent US8921108B2, “Differentiated human liver cell cultures and their use in bioartificial liver systems” (Academisch Ziekenhuis Bij de Universiteit van Amsterdam, priority 2009, dated 2014)
